From US5908851A (priority 1995, dated 1999)
Read-outs that look alike come from different tables or passages of the source.

Tests used:
[1] = target: T1, recombinant matrilysin (PUMP-1) (Homo sapiens, UniProt P09237); test: Inhibition of recombinant matrilysin (PUMP-1, MMP-7), 14C-acetylated casein; assay type: biochemical; conditions: 37° C., 16 hours, pH 7.6; read-out: In vitro inhibitory activity IC50, Matrilysin (MMP-7)
T1 sequence (P09237 95-267): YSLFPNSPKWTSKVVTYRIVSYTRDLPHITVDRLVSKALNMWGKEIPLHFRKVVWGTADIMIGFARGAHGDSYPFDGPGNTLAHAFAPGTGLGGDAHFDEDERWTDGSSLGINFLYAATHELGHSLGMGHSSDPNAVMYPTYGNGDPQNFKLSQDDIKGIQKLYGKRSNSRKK

stromelysin-1 [2] = target: T2, stromelysin-1 (Homo sapiens, UniProt P08254); test: biochemical
T2 sequence (P08254 100-477, species assumed): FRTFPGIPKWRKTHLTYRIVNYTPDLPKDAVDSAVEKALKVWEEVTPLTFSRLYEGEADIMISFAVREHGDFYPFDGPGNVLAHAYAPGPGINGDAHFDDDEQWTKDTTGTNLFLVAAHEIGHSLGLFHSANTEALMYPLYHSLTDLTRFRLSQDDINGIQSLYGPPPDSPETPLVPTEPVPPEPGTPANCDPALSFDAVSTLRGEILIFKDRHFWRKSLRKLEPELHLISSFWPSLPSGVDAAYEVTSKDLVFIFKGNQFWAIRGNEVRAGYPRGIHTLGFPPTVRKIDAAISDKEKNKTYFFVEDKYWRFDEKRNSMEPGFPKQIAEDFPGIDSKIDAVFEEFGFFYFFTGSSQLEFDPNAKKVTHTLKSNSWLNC
Description: (§1) The casein was acetylated ^14 C casein prepared by the method of Cawston et al. (ibid.).

72 kDa gelatinase [3] = target: T3, 72 kDa gelatinase (Homo sapiens, UniProt P08253); test: biochemical
T3 sequence (P08253 110-660): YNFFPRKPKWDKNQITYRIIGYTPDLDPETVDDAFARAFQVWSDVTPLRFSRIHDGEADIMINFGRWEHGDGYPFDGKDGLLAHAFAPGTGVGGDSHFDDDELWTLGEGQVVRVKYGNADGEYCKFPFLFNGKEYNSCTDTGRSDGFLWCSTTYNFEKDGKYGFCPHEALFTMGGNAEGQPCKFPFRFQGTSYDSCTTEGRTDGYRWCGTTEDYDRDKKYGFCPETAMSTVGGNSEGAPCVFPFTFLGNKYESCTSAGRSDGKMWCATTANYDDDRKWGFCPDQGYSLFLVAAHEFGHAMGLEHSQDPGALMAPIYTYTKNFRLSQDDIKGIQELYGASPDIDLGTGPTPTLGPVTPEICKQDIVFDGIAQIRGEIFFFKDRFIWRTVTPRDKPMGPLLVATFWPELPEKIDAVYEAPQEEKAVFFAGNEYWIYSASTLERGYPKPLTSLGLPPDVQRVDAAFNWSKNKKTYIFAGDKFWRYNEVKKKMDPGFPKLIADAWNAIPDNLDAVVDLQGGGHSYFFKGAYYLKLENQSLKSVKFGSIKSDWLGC

[4] = target: T4, human fibroblast collagenase (Homo sapiens, UniProt P03956); test: Inhibition of human fibroblast collagenase (MMP-1), 14C-acetylated collagen; assay type: biochemical; conditions: for IC50: 37° C., 16 hours, pH 7.5, read-out: In vitro inhibitory activity IC50, Fib. Collag. (MMP-1); for inhibition at 100 µM: read-out: % I (inhibition), Fib. Collag. (MMP-1)
T4 sequence (P03956 100-469): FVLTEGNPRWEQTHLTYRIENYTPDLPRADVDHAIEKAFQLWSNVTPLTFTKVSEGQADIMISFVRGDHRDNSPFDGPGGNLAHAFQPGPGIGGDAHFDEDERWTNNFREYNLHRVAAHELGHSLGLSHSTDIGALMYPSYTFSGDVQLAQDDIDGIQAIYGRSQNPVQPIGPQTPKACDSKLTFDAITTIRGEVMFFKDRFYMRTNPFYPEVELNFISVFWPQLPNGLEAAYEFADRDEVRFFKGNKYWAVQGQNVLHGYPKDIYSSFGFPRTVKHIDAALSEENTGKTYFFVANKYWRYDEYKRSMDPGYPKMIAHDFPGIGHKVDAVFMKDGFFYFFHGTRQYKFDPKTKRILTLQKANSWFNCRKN
Description: The samples were centrifuged to sediment undigested collagen, and an aliquot of the radioactive supernatant removed for assay on a scintillation counter as a measure of hydrolysis.

stromelysin-1 [5] = target: T2, stromelysin-1; conditions: read-out: In vitro inhibitory activity IC50, Stromelysin-1 (MMP-3); 37° C., 16 hours, pH 7.5
Description: as §1

72 kDa gelatinase [6] = target: T3, 72 kDa gelatinase; conditions: read-out: In vitro inhibitory activity IC50, Gelatinase A (MMP-2); 37° C., 16 hours; enzyme from RPMI-7951 cells

SMILES | IC50 [1] [nM] | IC50 (stromelysin-1 [2]) [nM] | IC50 (72 kDa gelatinase [3]) [nM] | IC50 [4] [nM] | inhibition at 100 µM (72 kDa gelatinase [3]; read-out: % I (inhibition), Gelatinase A (MMP-2)) [%] | inhibition at 100 µM [4] [%] | IC50 (stromelysin-1 [5]) [nM] | IC50 (72 kDa gelatinase [6]) [nM]
C=CC[C@H](C(=O)NO)[C@@H](CC(C)C)C(=O)N[C@H](C(=O)NC)C(C)(C)C [Comparator 2, 2S-Allyl-N^4-(2,2-dimethyl-1S-methylcarbamoyl-propyl)-N^1-hydroxy-3R-isobutyl-succinamide, reference compound] | 20 |  |  |  |  |  |  | 
CC(C)C[C@@H](C(=O)N[C@H](C(=O)NC(c1ccccc1)c1ccccc1)C(C)(C)C)[C@H](O)C(=O)NO [Example 1, N^4-[1S-(Benzhydryl-carbamoyl)-2,2-dimethyl-propyl]-2S,N^1-dihydroxy-3R-isobutyl-succinamide] | 4 | 50 | 3000 | 600 |  |  |  | 
CC(C)C[C@@H](C(=O)N[C@H](C(=O)NC1c2ccccc2-c2ccccc21)C(C)(C)C)[C@H](O)C(=O)NO [Example 2, N^4-[1S-(9H-Fluoren-9-ylcarbamoyl)-2,2-dimethyl-propyl]-2S,N^1-dihydroxy-3R-isobutyl-succinamide] | 70 | 200 | 17000 | 2000 |  |  |  | 
CC(C)C[C@@H](C(=O)N[C@H](C(=O)NC(c1ccccc1)c1ccc(Cl)cc1)C(C)(C)C)[C@H](O)C(=O)NO (stereo partly drawn) [Example 3, N^4-(1S-{[(4-Chloro-phenyl)-phenyl-methyl]-carbamoyl}-2,2-dimethyl-propyl)-2R,N^1-dihydroxy-3R-isobutyl-succinamide] | 10 | 200 | 2000 | 400 |  |  |  | 
CC(C)C[C@@H](C(=O)N[C@H](C(=O)NC(c1ccccc1)c1ccc(F)cc1)C(C)(C)C)[C@H](O)C(=O)NO (stereo partly drawn) [Example 4, N^4-(1S-{[(4-Fluoro-phenyl)-phenyl-methyl]-carbamoyl}-2,2-dimethyl-propyl)-2S,N^1-dihydroxy-3-isobutyl-succinamide] | 9 | 60 | 500 | 400 |  |  |  | 
CC(C)C[C@@H](C(=O)N[C@H](C(=O)NC(c1ccccc1)c1ccccc1F)C(C)(C)C)[C@H](O)C(=O)NO (stereo partly drawn) [Example 5, N^4-(1S-{[(2-Fluoro-phenyl)-phenyl-methyl]-carbamoyl}-2,2-dimethyl-propyl)-2S,N^1-dihydroxy-3R-isobutyl-succinamide] | 9 | 100 | 600 | 700 |  |  |  | 
CC(C)C[C@@H](C(=O)N[C@H](C(=O)NC(c1ccccc1)c1ccccc1)C(C)(C)O)[C@H](O)C(=O)NO [Example 6, N^4-[1S-(Benzhydryl-carbamoyl)-2-hydroxy-2-methyl-propyl]-2S, N^1-dihydroxy-3R-isobutyl-succinamide] | 15 | 200 | 600 | 2000 |  |  |  | 
CO[C@H](C(=O)O)[C@@H](CC(C)C)C(=O)N[C@H](C(=O)NC(c1ccccc1)c1ccccc1)C(C)(C)O [Example 7, N^4-[1S-(Benzhydryl-carbamoyl)-2-hydroxy-2-methyl-propylcarbamoyl]-2S-methoxy-5R-methyl-hexanoic acid] |  | 20000 |  |  | 50 | 40 |  | 
CO[C@H](C(=O)NO)[C@@H](CC(C)C)C(=O)N[C@H](C(=O)NC(c1ccccc1)c1ccccc1)C(C)(C)O [Example 8] | 9 | 20 | 1000 | 700 |  |  |  | 
CC(C)(C)[C@H](NC(=O)[C@H](C/C=C/c1ccccc1)[C@H](O)C(=O)NO)C(=O)NC(c1ccccc1)c1ccccc1 [Example 9, N^4-[1S-(Benzhydryl-carbamoyl)-2,2-dimethyl-propyl]-2S,N^1-dihydroxy-3R-(3-phenyl-allyl)-succinamide] | 500 |  |  |  |  | 30 | 800 | 40000
CC(C)(C)[C@H](NC(=O)[C@H](CCCc1ccccc1)[C@H](O)C(=O)NO)C(=O)NC(c1ccccc1)c1ccccc1 [Example 10, N^4-[1S-(Benzhydryl-carbamoyl)-2,2-dimethyl-propyl]-2S,N^1-dihydroxy-3R-(3-phenyl-propyl)-succinamide] | 1000 |  |  | 10000 |  |  |  | 
CC(C)C[C@@H](C(=O)N[C@H](C(=O)NC(c1ccccn1)c1ccccn1)C(C)(C)C)[C@H](O)C(=O)NO [Example 11, N^4 -{1S-[(Di-pyridin-2-yl-methyl)-carbamoyl]-2,2-dimethyl-propyl}-2S,N^1-dihydroxy-3R-isobutyl-succinamide] | 20 | 200 | 1000 | 300 |  |  |  | 
C=CC[C@H](C(=O)NO)[C@@H](CC(C)C)C(=O)N[C@H](C(=O)NC(c1ccccc1)c1ccccc1)C(C)(C)C [Example 12, 2S-Allyl-N^4-[1S-(benzhydryl-carbamoyl)-2,2-dimethyl-propyl]-N^1-hydroxy-3R-isobutyl-succinamide] | 30 | 80 | 40000 | 800 |  |  |  | 
C=CC[C@H](C(=O)NO)[C@@H](CCCCCCCC)C(=O)N[C@H](C(=O)NC(c1ccccc1)c1ccccc1)C(C)(C)C [Example 13, 2S-Allyl-N^4-[1S-(benzhydryl-carbamoyl)-2,2-dimethyl-propyl]-N^1-hydroxy-3R-octyl-succinamide] | 400 | 60 | 20000 | 30000 |  |  |  | 
